Assay [1] concerns the target T1, Succinyl-diaminopimelate desuccinylase (Haemophilus influenzae (strain ATCC 51907 / DSM 11121 / KW20 / Rd), UniProt P44514).
T1 sequence (P44514 whole entry): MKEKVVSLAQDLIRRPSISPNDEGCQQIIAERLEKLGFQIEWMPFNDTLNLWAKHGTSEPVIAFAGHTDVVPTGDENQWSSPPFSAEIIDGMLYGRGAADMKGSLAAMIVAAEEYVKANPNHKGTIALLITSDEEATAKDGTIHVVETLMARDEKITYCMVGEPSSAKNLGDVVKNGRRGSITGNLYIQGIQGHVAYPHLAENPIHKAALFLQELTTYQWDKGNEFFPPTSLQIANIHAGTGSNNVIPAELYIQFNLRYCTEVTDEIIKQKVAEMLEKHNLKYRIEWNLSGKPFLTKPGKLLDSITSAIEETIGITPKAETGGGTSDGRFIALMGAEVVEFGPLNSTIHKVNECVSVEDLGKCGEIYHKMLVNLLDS
Put plainly: Inhibition of Haemophilus influenzae DapE.

Assay [2] has as its target T2, Succinyl-diaminopimelate desuccinylase (Haemophilus influenzae (strain ATCC 51907 / DSM 11121 / KW20 / Rd)) (UniProt P44514).
T2 sequence (whole entry): T1 sequence (P44514 whole entry)
Put plainly: Inhibition of Haemophilus influenzae DapE at 100 uM relative to control.

Assay [3] has as its target T2, Succinyl-diaminopimelate desuccinylase (Haemophilus influenzae (strain ATCC 51907 / DSM 11121 / KW20 / Rd)). Put plainly: Inhibition of Haemophilus influenzae DapE at 75 uM relative to control.

pIC50: −log10 of the molar value.

In turn, `O=C(CSc1nnnn1-c1ccccc1)Nc1ccccc1` gave a pIC50 in assay [1] of 4.27. Moreover, the inhibition in assay [2] was 83.8%.

`O=C(CSc1nnnn1-c1ccccc1)NCc1ccccc1` showed a pIC50 in assay [1] of 3.99. The compound also displayed an inhibition in assay [2] of 61.5%.

Turning to `CC(Sc1nnnn1-c1ccccc1)C(=O)NCc1ccccc1` (centres undefined), the inhibition in assay [2] was determined as 36.3%.

`CC(Sc1nnnn1-c1ccccc1)C(=O)Nc1ccon1` (centres undefined) had an inhibition in assay [2] of 17.2%.

For `CC(Sc1nnnn1-c1ccccc1)C(=O)Nc1cnccn1` (centres undefined), in assay [2], the inhibition amounted to 9.7%.

For `O=C(CSc1nnnn1-c1ccccc1)Nc1nccs1`, in assay [1], the pIC50 was 4.30. In addition, the inhibition in assay [2] amounted to 71.5%.

In assay [2], `CC(Sc1nnnn1-c1ccccc1)C(=O)Nc1ccccn1` (centres undefined) showed an inhibition of 23.2%.

`CC(Sc1nnnn1-c1ccccc1)C(=O)Nc1ccccc1` (centres undefined) showed a pIC50 in assay [1] of 3.87. The same compound had an inhibition in assay [2] of 55.4%.

As to `O=C(CSc1nnnn1-c1ccccc1)Nc1ccon1`, the inhibition in assay [2] stood at 49.2%.

The compound `CC(Sc1nnnn1-c1ccccc1)C(=O)Nc1ccc(Cl)cn1` (centres undefined) showed a pIC50 in assay [1] of 4.24. Further, the inhibition in assay [2] is 71%.

`O=C(CSc1nnnn1-c1ccccc1)Nc1cnccn1` showed an inhibition in assay [2] of 10.2%.

As for `O=C(CSc1nnnn1-c1ccccc1)Nc1ccccn1`, the inhibition in assay [2] was found to be 26.5%.

In turn, `CC(Sc1nnnn1-c1ccccc1)C(=O)Nc1nccs1` (centres undefined) had an inhibition in assay [2] of 35.6%.

For the compound `O=C(CSc1nnnn1-c1ccccc1)Nc1ccc(Cl)cn1`, the inhibition in assay [3] was 39.5%.
